Assay results reported in patent US5466712A, “Substituted n-aryl-1,2-diaminocyclobutene-3,4-diones” (American Home Products Corporation, priority 1994, dated 1995).
pIC50: −log10 of the molar value.

Test system: Isolated Rat Bladder Strips
Assay: Inhibition of Contractions in Isolated Rat Bladder Strips (15 mM KCl-enhanced contractions)
Type: cell-based, Sprague-Dawley rats
Settings: 0.5 h, 30 min challenge; for pIC50: concentration eliciting 50% inhibition of pre-drug contractile activity; for inhibition at 30 µM: read-out: Inhibition of Force (%) at (x) μM
Text: Smooth muscle relaxing activity of the compounds of this invention was established in accordance with standard pharmaceutically accepted test procedures in representative compounds as follows:
Sprague-Dawley rats (150-200 g) are rendered unconscious by CO2 asphyxiation and then euthanized by cervical dislocation. The bladder is removed into warm (37 deg. C.) physiological salt solution (PSS) of the following composition (mM): NaCl, 118.4; KCl, 4.7; […]; NaHCO3, 24.9; KH2 PO4, 1.2; glucose, 11.1; EDTA, 0.023; gassed with […]; pH 7.4. The bladder is opened and then cut into strips 1-2 mm in width and 7-10 mm in length. The strips are subsequently suspended in a 10 mL tissue bath under an initial resting tension of 1.5 g. The strips are held in place by two surgical clips one of which is attached to fixed hook while the other is attached to an isometric force transducer. […] The carbachol is then washed out and the tissue allowed to relax to its resting level of activity. Following 1 further 30 min period of recovery an additional 15 mM KCl are introduced into the tissue bath. This increase in KCl concentration results in a large increase in the amplitude of spontaneous contractions (and initiation of contractions in previously quiescent strips) superimposed upon a small increase in basal tone. Following stabilization of this enhanced level of contractile activity, incremental increases in the concentration of test compound or vehicle are introduced into the tissue bath. Contractile activity is measured for each compound or vehicle concentration during the last […] of a 30 min challenge.
Isometric force developed by the bladder strips is measured using a […] to elicit 50% inhibition of pre-drug contractile activity (IC50 concentration) is calculated from this concentration-response curve. The maximum percentage inhibition of contractile activity evoked by a test compound is also recorded for concentrations of test compound<or equal to 30 μM.

| SMILES | pIC50 | inhibition at 30 µM [%] |
| --- | --- | --- |
| C[C@@H](Nc1c(Nc2ccc(C#N)cc2)c(=O)c1=O)c1ccccc1 [Example 1, 4-[3,4-Dioxo-2-((R)-1-phenyl-ethylamino)-cyclobut-1-enylamino]-benzonitrile] | 7.25 |  |
| C[C@@H](Nc1c(Nc2ccncc2)c(=O)c1=O)c1ccccc1 [Example 4, 3-((R)-1-Phenyl-ethylamino)-4-(pyridin-4-ylamino)-cyclobut-3-ene-1,2-dione] | 5.64 |  |
| C[C@H](Nc1c(Nc2ccc(C#N)cc2)c(=O)c1=O)c1ccccc1 [Example 5, 4-[3.4-Dioxo-2-((S)-1-phenyl-ethylamino)-cyclobut-1-enylamino]-benzonitrile] |  | 38 |
| CC(C)(Nc1c(Nc2ccc(C#N)cc2)c(=O)c1=O)c1ccccc1 [Example 9, 4-[3,4-Dioxo-2-(1-methyl-1-phenyl-ethylamino)-cyclobut-1-enylamino]-benzonitrile] |  | 22 |
| CC[C@H](Nc1c(Nc2ccc(C#N)cc2)c(=O)c1=O)c1ccccc1 [Example 11, 4-[3,4-Dioxo-2-((S)-1-phenyl-propylamino)-cyclobut-1-enylamino]-benzonitrile] |  | 28 |
